In ChEMBL document CHEMBL1139293 (Bioorg Med Chem Lett, 2009):
Calls of active or inactive are those of the source. The rule behind the calls is not given here.

What was measured:
[1] = target: Neuronal acetylcholine receptor subunit alpha-7 (Homo sapiens, UniProt P36544); assay: Displacement of [3H]MLA from alpha7 nAChR/5HT3A receptor expressed in HEK293 cells; format: cell-based
[2] = target: T1, Neuronal acetylcholine receptor; alpha3/beta4 (Homo sapiens, UniProt P30926+P32297); assay: Agonist activity at alpha3beta4 nAChR expressed in HEK293 cells by FLIPR membrane potential assay; format: functional, cell-based
T1 sequence (P30926 whole entry): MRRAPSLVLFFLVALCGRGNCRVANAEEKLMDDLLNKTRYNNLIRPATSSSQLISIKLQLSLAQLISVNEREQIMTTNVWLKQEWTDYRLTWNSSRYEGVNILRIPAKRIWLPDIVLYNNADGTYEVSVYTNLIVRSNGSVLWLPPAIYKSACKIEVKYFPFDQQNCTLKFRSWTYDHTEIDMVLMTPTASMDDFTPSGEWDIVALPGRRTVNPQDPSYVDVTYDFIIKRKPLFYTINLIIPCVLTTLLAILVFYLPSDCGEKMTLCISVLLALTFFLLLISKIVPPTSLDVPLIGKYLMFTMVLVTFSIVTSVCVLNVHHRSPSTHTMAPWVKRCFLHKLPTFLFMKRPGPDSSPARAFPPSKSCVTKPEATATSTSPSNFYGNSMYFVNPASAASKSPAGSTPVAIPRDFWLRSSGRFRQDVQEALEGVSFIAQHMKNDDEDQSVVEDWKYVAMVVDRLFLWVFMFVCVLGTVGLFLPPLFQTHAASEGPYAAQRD
T1 sequence (P32297 whole entry): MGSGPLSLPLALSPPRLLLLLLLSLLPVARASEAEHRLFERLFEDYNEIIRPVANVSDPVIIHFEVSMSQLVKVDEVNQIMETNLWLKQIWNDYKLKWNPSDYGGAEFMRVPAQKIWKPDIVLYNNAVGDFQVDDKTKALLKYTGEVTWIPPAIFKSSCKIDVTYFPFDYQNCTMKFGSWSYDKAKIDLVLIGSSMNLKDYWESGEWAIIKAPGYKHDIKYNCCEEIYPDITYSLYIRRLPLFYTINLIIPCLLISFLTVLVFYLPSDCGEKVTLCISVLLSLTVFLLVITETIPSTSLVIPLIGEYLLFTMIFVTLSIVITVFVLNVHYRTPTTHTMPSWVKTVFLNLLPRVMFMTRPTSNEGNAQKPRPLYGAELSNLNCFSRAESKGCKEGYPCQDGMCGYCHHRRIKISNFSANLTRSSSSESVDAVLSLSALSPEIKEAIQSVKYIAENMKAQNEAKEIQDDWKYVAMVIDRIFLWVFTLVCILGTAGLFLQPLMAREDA

[3] = target: T1, Neuronal acetylcholine receptor; alpha3/beta4; assay: Agonist activity at alpha3beta4 nAChR expressed in HEK293 cells at 300 uM by FLIPR membrane potential assay; format: functional, cell-based
[4] = target: T1, Neuronal acetylcholine receptor; alpha3/beta4; assay: Agonist activity at alpha3beta4 nAChR expressed in HEK293 cells at 1 mM by FLIPR membrane potential assay; format: functional, cell-based

Neuronal acetylcholine receptor subunit alpha-7, sequence (P36544 23-502 limits assumed): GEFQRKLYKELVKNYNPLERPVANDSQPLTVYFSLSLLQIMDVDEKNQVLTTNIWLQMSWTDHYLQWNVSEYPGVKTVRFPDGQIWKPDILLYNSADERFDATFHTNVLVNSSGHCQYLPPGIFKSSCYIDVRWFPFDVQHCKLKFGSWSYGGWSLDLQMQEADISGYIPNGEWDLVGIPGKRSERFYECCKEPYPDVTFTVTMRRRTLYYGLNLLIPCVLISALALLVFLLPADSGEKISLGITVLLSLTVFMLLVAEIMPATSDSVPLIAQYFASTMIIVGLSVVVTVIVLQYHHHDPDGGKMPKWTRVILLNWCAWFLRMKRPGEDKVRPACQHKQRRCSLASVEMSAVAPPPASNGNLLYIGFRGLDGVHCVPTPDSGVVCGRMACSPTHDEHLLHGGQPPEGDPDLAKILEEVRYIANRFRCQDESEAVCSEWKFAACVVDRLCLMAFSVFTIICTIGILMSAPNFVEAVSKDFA

SMILES	Ki [1]	EC50 ([2]; read-out: EC50)	Activity [3]	EC50 ([2]; read-out: pEC50 (converted))	Activity [4]	pKi [1]
CNC(=O)/C=C/CC(C)N(C)C (stereo not given)	> 1 mM	0.15 mM				
CCCNC(=O)OCCC(C)N(C)C (stereo not given)	> 1 mM	0.095 mM				
CC(CCOC(=O)NCCCc1ccccc1)N(C)C (stereo not given)	> 1 mM	> 1 mM	Active	1 mM		
CC(CCCC(=O)N(C)C)N(C)C (stereo not given)	> 1 mM	1 mM	Active			
CC(CCOC(N)=O)N(C)C (stereo not given)	> 1 mM	0.057 mM				
CC(CCNC(=O)N(C)C)N(C)C (stereo not given)	> 1 mM	> 3 mM			Active	
CN(C)C(=O)OCCC(c1ccsc1)N(C)C (stereo not given)	1 mM	> 1 mM	Active	1 mM		3
CC(CCSC(=O)N(C)C)N(C)C (stereo not given)	> 1 mM	0.43 mM				
CN(C)C(=O)OCCC(c1ccccc1)N(C)C (stereo not given)	1 mM	> 1 mM	Active	1 mM		3
CC(CCOC(=O)NCCO)N(C)C (stereo not given)	> 1 mM	0.3 mM				
CC(CCOC(=O)N(C)c1ccc(C#N)cc1)N(C)C (stereo not given)	1 mM	> 1 mM	Active	1 mM		3
CC(CCNC(=O)Nc1ccccc1)N(C)C (stereo not given)	> 1 mM	> 3 mM			Active	
CC(CCOC(=O)N(C)CCO)N(C)C (stereo not given)	> 1 mM	0.16 mM				
CC(CCOC(=S)N(C)C)N(C)C (stereo not given)	> 1 mM	0.053 mM				
CC(C/C=C/C(=O)N(C)C)N(C)C (stereo not given)	> 1 mM	0.091 mM				
CC(CCOC(=O)N(C)c1ccccc1)N(C)C (stereo not given)	1 mM	0.051 mM				3
CC(CCOC(=O)N(C)Cc1ccccc1)N(C)C (stereo not given)	1 mM	0.0067 mM				3
CC(CCOC(=O)N(C)c1ccc(Cl)cc1)N(C)C (stereo not given)	1 mM	0.028 mM		0.0316 mM		3
CCNC(=O)OCCC(C)N(C)C (stereo not given)	> 1 mM	0.055 mM				
CN(C)C(=O)OCCC(CO)N(C)C (stereo not given)	> 1 mM	> 3 mM	Active		Active	
